Results as given in patent publication US20040081682A1, “Transdermal system (tds) that contain inhibitors of phosphodiesterase lV” (priority 2000, published 2004).

Test: Pharmacokinetic study of humans (transdermal TDS E vs. intravenous infusion, serum RIA)
Details: human, in vivo
Description: Pharmacokinetic Study of Humans
The above-described formulation E was tested on twelve healthy males at the age of 20 to 42 years with normal body weight, whereby for 72 hours in each case, three transdermal formulations of 10 cm^2 each with 5 mg of (R)-(−)-5-(4-methoxyphenyl-3-propoxy)-5-methyl-2-oxazolidinone were simultaneously applied on the lower back area. After 72 hours, the transdermal formulation was removed and within one week of washing-out time, the concentration of the active ingredient in the serum was determined per RIA. The measured serum levels of the active ingredient produced an average transdermal substance flow of 0.49±0.7 μg/cm^2/h, at maximum serum levels of 0.88 ng/ml in the time interval of 29±10 hours.
Based on the pronounced plateau phase, which was achieved after the administration of the TDS, at the time of the reduction of TDS after three days, it was still possible to measure mesopram concentrations in the range of 65±18% of the maximum levels. […] The AUC values as well as other pharmacokinetic parameters are found in Table 3. In a comparison test with intravenous administration of a total of 0.2 mg of (R)-(−)-5-(4-methoxyphenyl-3-propoxy)-5-methyl-2-oxazolidinone within one hour, a multiple of higher serum levels was measured that was […]. One hour after the infusion was completed, the mean serum levels dropped to 1.15±0.44 ng·ml·l. Later on, the serum levels dropped off four hours after completion of the infusion to achieve a level of 0.39±0.17 ng·ml·l, after 8 hours 0.17±0.09 ng·ml·l, and after 24 hours 0.08±0.08 ng·ml·l. The essential pharmacokinetic parameters after i.v. administration of mesopram are depicted in Tab. 3. The comparison test with infusion was performed on the same test subjects as the transdermal administration. […]

Q: Which “Cl (clearance)” value does the source give for “(R)-(−)-5-(4-methoxyphenyl-3-propoxy)-5-methyl-2-oxazolidinone [mesopram]” here?
A: 5.1 ± 1.8

Q: What about the “f (absolute bioavailability)” value of the same substance?
A: 100%

Q: What about the “ιη (half-life)” value of the same substance?
A: 2.5 ± 0.9 h
